Reference: US20100323979A1, “METHODS AND COMPOSITIONS FOR INHIBITING PROLIFERATION OF ANEUPLOID CELLS” (priority 2009, published 2010)

Columns and labels:
[1] = system: trisomic primary MEF cells; experiment: Cell proliferation assay, trisomic MEFs; type: cell-based, mouse; settings: for sensitivity in relation to size of the additional chromosome: trisomy 1 versus trisomy 16 or 19
Protocol: MEF cells were cultured in DMEM supplemented with 10% FBS, 2 mM glutamine, 50 U/ml penicillin, and 50 U/ml streptomycin. […] Lymphoma cells were cultured in IMDM supplemented with 10% FBS, 2 mM glutamine, 50U/ml penicillin, 50 U/ml streptomycin and […] beta-mercaptoethanol. All cells were cultured at 37° C. with 5% CO2 in a humidified environment. In all experiments, cells were counted using a Cellometer Auto T4 automated hemacytometer (Nexcelom). […] After infection with shRNA constructs, GFP+FACS sorted cells were plated at a density of 5×10^5 cells/well in 6-well plates. Cells were treated with AICAR at various concentrations or solvent control then counted at indicated time point.

[2] = system: Eμ-Myc;Arf−/− lymphoma cells; experiment: Cell proliferation assay, euploid lymphoma cells; type: cell-based; settings: various concentrations, 24 h, FIG. 2A
Protocol: (§1) All euploid (WT) and aneuploid (Ts) mouse embryonic fibroblast (MEF) lines were established as previously described (Williams, B. R. et al., 2008). MEF cells were cultured in DMEM supplemented with 10% FBS, 2 mM glutamine, 50 U/ml penicillin, and 50 U/ml streptomycin. Eμ-Myc;Arf−/− and Eμ-Myc;p53−/− lymphoma cells were established as previously described (Wendel, H. et al., 2006). Lymphoma cells were cultured in IMDM supplemented with 10% FBS, 2 mM glutamine, 50U/ml penicillin, 50 U/ml streptomycin and […] beta-mercaptoethanol. All cells were cultured at 37° C. with 5% CO2 in a humidified environment. In all experiments, cells were counted using a Cellometer Auto T4 automated hemacytometer (Nexcelom).
(§2) Exponentially growing early passage MEFs were plated at a density of 2×10^5 cells/well in 6-well plates and lymphoma cells were cultured and infected as described previously (Hemann, M. T. et al., 2003). After infection with shRNA constructs, GFP+FACS sorted cells were plated at a density of 5×10^5 cells/well in 6-well plates. Cells were treated with AICAR at various concentrations or solvent control then counted at indicated time point.

[3] = system: Eμ-Myc;p53−/− lymphoma cells; experiment: Cell proliferation assay, aneuploid lymphoma cells; type: cell-based
Protocol: as §1
AMPK-specific shRNA constructs were generated as described previously (Silva, J. M. et al., 2005). Targeting sequences were selected based on BIOPREDsi design (Huesken, D, et al., 2005).
as §2

[4] = system: autophagy (LC3, BNIP3) in trisomy 13 and 16 MEFs; experiment: Autophagy markers in trisomic MEFs (LC3 immunoblot, RT-qPCR, GFP-LC3 puncta); type: cell-based, mouse
Protocol: (§3) Western blotting was performed as previously described (Dickins, R. A. et al., 2005). Proteins were detected by using the following antibodies: anti-AMPKα (Cell signaling technology), anti-Hsp70 (Stressgen), and anti-β actin (Sigma). Secondary antibodies were horseradish peroxidase-conjugated anti-mouse or anti-rabbit IgG (GE Healthcare; 1:5,000).
For GFP-LC3 fluorescence imaging, wild-type GFP-LC3 and trisomic GFP-LC3 MEF cells were exposed to the indicated drug treatments in phenol red-free DMEM. All fluorescence images were acquired using a Nikon digital sight DS-Qil MC camera on a Nikon Eclipse Ti inverted microscope. All single plane images were acquired and processed using the NIS-Element AR 3.0 software.
Total RNA from MEFs was isolated using the RNeasy Mini Kit (Qiagen) according to the manufacturer's instructions. 1μg RNA was used to generate cDNAs using RETROscript kit (Ambion). qPCR was performed by mixing iQ SYBR Green Supermix (Bio-Rad) with the primers described in Table S2, and amplified using a LightCycler 480 II (Roche). The LightCycler software was used to evaluate gene expression level and normalized to a ribosomal reference gene, rpl19.

[5] = system: inducible Hsp70 in trisomic MEFs; experiment: Inducible Hsp70 levels by immunoblotting in trisomic MEFs; type: cell-based, mouse; settings: indicated doses, FIG. 4D
Protocol: as §3

| SMILES | sensitivity in relation to size of the additional chromosome ([1]; FIG. 3A/3B) | proliferation of trisomy 1, 13, 16 and 19 cells ([1]; 100 nM, cell number after 3 days, FIG. 3A) | proliferation of trisomic/aneuploid cells versus wild-type (cell number) ([1]; single agent, cell number after 3 days, FIG. 3A/3B) | sensitivity of MEFs carrying trisomies (cell count relative to non-treated control) ([1]; trisomic for chromosome 1, 13, 16 or 19, 0-0.5 mM, 72 or 144 h, FIG. 1) | sensitivity of euploid immortalized B-cells (cell count relative to control) [2] | proliferation after knock-down of AMPK ([3]; Eμ-Myc;p53−/− infected with AMPK-specific shRNA, FIG. 2B) | sensitivity of aneuploid B cells (cell count relative to control) ([3]; Eμ-Myc;p53−/−, various concentrations, 24 h, FIG. 2A) | LC3 incorporation into autophagosomes ([4]; 24 hours after treatment, LC3-GFP puncta, FIG. 4A-4C) | LC3 expression ([4]; FIG. 4A-4B) | Bnip3 expression ([4]; RT-qPCR normalized to rpl19, FIG. 4B) | Hsp70 activity (levels of inducible Hsp70) [5] |
| --- | --- | --- | --- | --- | --- | --- | --- | --- | --- | --- | --- |
| CCN(CC)CCCC(C)Nc1ccnc2cc(Cl)ccc12 (stereo not drawn) [chloroquine] | correlated with the size of the additional chromosome |  |  |  |  |  |  |  |  |  |  |
| C=CCNC1=C2C[C@@H](C)C[C@H](OC)[C@H](O)[C@@H](C)/C=C(\C)[C@H](OC(N)=O)[C@@H](OC)/C=C\C=C(/C)C(=O)NC(=CC1=O)C2=O [17-AAG, 17-(Allylamino)-17-demethoxygeldanamycin] | higher sensitivity | impaired | preferentially inhibited |  |  |  |  |  |  |  |  |
| NC(=O)c1ncn([C@@H]2O[C@H](CO)[C@@H](O)[C@H]2O)c1N [AICAR, 5-aminoimidazole-4-carboxamide riboside] |  |  |  | sensitive | not sensitive | proliferate the same in the presence and absence of AICAR | sensitive | further induced | further induced | further induced | further increase |
